Source: US9493468B2, “Antifungal 5,6-dihydro-4H-pyrrolo[1,2-a][1,4]benzo-diazepines and 6H-pyrrolo[1,2-a][1,4]benzodiazepines substituted with heterocyclic derivatives” (Janssen Pharmaceutica NV, priority 2011, dated 2016)

Tests used:
Type in all cases: cell-based
Aspergillus fumigatus = test: Antifungal activity in vitro, resazurin growth inhibition: Aspergillus fumigatus (B42928)
How it was run: (§1)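 Compound dilutions, with 64 μM as the highest in-test level, are spotted onto plates, then an inoculum of 10^3 cfu in RPMI-1640 plus 2% glucose (MOPS, pH 7.0±0.1) is added. Plates are incubated at species-dependent time and temperature, up to a week or more at 27° C. for dermatophytes.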

Scedosporium apiospermum = test: Antifungal activity in vitro, resazurin growth inhibition: Scedosporium apiospermum (IHEM3817)
How it was run: as §1

Cryptococcus neoformans = test: Antifungal activity in vitro, resazurin growth inhibition: Cryptococcus neoformans (B66663)
How it was run: as §1

Rhizomucor miehei = test: Antifungal activity in vitro, resazurin growth inhibition: Rhizomucor miehei (IHEM13391)
How it was run: as §1

Microsporum canis = test: Antifungal activity in vitro, resazurin growth inhibition: Microsporum canis (B68128)
How it was run: (§2)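 Resazurin conversion to fluorescent resorufin (ex 550/em 590 nm) served as the growth readout. Compounds spanned 2- or 4-fold serial dilutions with 64 μM top in-test concentration; inoculum 10^3 cfu per well in MOPS-buffered RPMI-1640 (pH 7.0, 2% glucose). Incubation species-dependent, dermatophytes at 27° C. for ≥1 week.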

Trichophyton rubrum = test: Antifungal activity in vitro, resazurin growth inhibition: Trichophyton rubrum (B68183)
How it was run: as §2

Rhizopus oryzae = test: Antifungal activity in vitro, resazurin growth inhibition: Rhizopus oryzae (IHEM5223)
How it was run: as §1

Sporothrix schenkii = test: Antifungal activity in vitro, resazurin growth inhibition: Sporothrix schenkii (B62482)
How it was run: as §1

Candida parapsilosis = test: Antifungal activity in vitro, resazurin growth inhibition: Candida parapsilosis (B66126)
How it was run: as §1

[1] = test system: Trichophyton mentagrophytes; test: Antifungal activity in vitro, resazurin growth inhibition: Trichophyton mentagrophytes (B70554)
How it was run: as §2

Scedosporium prolificans = test: Antifungal activity in vitro, resazurin growth inhibition: Scedosporium prolificans (IHEM21157)
How it was run: as §1

Structure (SMILES)	Inf. E: Aspergillus fumigatus B42928, pIC50 (Aspergillus fumigatus)	Inf. H: Scedosporium apiospermum IHEM3817, pIC50 (Scedosporium apiospermum)	Inf. F: Cryptococcus neoformans B66663, pIC50 (Cryptococcus neoformans)	Inf. K: Rhizomucor miehei IHEM13391, pIC50 (Rhizomucor miehei)	Inf. B: Microsporum canis B68128, pIC50 (Microsporum canis)	Inf. C: Trichophyton rubrum B68183, pIC50 (Trichophyton rubrum)	Inf. J: Rhizopus oryzae IHEM5223, pIC50 (Rhizopus oryzae)	Inf. A: Sporothrix schenkii B62482, pIC50 (Sporothrix schenkii)	Inf. D: Candida parapsilosis B66126, pIC50 (Candida parapsilosis)	Inf. G: Trichophyton mentagrophytes B70554, pIC50 [1]	Inf. I: Scedosporium prolificans IHEM21157, pIC50 (Scedosporium prolificans)
Clc1cccc2c1CN=C(c1cnc3c(c1)CCC3)c1cccn1-2 [Compound 105]	5.76	7.52	5.30	4.23	6.67	6.87	<4.19	5.70	4.91	6.91	8.00
Cc1cccc2c1CN=C(c1cc3cccc(C)c3o1)c1cccn1-2 [Compound 131]	6.11	5.355	6.11	4.59	6.50	7.10	<4.34	5.51	4.81	6.31	5.99
Clc1ccc2c(c1)-n1cccc1C(c1cc3ccccc3s1)=NC2 [Compound 166]	6.00	4.33	6.00	<4.19	5.70	5.70	5.37	5.52	<4.19	5.52	5.65
Fc1cccc2c1CN=C(c1ccc3sccc3c1)c1cccn1-2 [Compound 175]	6.85	5.08	6.41	5.14	6.90	7.36	5.07	5.70	6.17	7.11	5.56
Clc1ccc2c(c1)-n1cccc1C(c1ccc3ncsc3c1)=NC2 [Compound 185]	6.29	4.41	6.33	<4.19	6.39	6.73	<4.19	5.28	4.23	6.04	5.16
FC(F)(F)c1ncc(C2=NCc3c(Cl)cccc3-n3cccc32)cn1 [Compound 102]	5.05	<4.19	<4.19	<4.19	6.34	6.84	<4.19	4.59	<4.19	6.01	5.18
CCc1ccc(C2=NCc3c(Cl)cccc3-n3cccc32)cn1 [Compound 74]	5.25	6.29	<4.19	<4.19	5.91	6.31	<4.19	4.44	4.92	6.18	6.88
c1ccc2c(c1)CN=C(c1cc3ccccc3o1)c1cccn1-2 [Compound 115]	6.82	<4.19	5.70	4.88	7.02	7.47	<4.19	5.70	4.25	7.28	5.98
Cc1ccc2cc(C3=NCc4c(C)cccc4-n4cccc43)oc2c1 [Compound 140]	5.05	5.35	4.60	4.68	6.44	7.50	<4.19	6.23	4.34	6.11	6.36
Fc1cc(F)c2oc(C3=NCc4c(Cl)cccc4-n4cccc43)cc2c1 [Compound 128]	5.99	<4.19	4.69	<4.19	6.02	6.87	<4.19	<4.19	<4.19	6.30	7.10
Fc1ccc2oc(C3=NCc4ccc(Cl)cc4-n4cccc43)cc2c1 [Compound 124]	6.25	<4.19	6.32	<4.19	5.63	6.22	5.08	5.10	<4.19	5.75	5.90
Fc1cccc2cc(C3=NCc4c(Cl)cccc4-n4cccc43)oc12 [Compound 127]	6.31	4.80	5.22	<4.19	6.44	6.94	<4.19	<4.19	<4.19	6.40	6.64
Clc1cccc2c1CN=C(c1ccc3occ(Cl)c3c1)c1cccn1-2 [Compound 152]	6.26	4.28	5.82	<4.19	6.34	6.85	<4.19	5.11	5.59	6.46	5.15
